pIC50: −log10 of the molar value.
Assays:
[1] = test system: MCF-7; assay: CellTiter-Glo cell proliferation inhibition, MCF-7 (Effect Example 2); type: cell-based; conditions: Homo sapiens, MCF7, 144 h, MCF-7 (CTG), 6 days, starting concentration 10 μM; for inhibition at up to 10 µM: read-out: IH % max (maximum inhibition percentage)
Summary of the method: (§1)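 MCF-7, TamR-MCF-7, and CRISPR-edited MCF-7 ER D538G or Y537S cells were seeded at 1,000 or 2,000 cells/well in EMEM and cultured 24 h. They were then exposed to a 4-fold, 10-point series (top 10 µM before addition to wells) for 6 days or 72 h at 37 °C. CellTiter-Glo luminescence gave IC50 and maximum % inhibition.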

[2] = test system: MCF-7 ER^D538G; assay: CellTiter-Glo cell proliferation inhibition, MCF-7 ER^D538G; type: cell-based; conditions: Homo sapiens, MCF7, 144 h, MCF-7 ER^D538G (CTG), 6 days, starting concentration 10 μM; for inhibition at up to 10 µM: read-out: IH % max (maximum inhibition percentage)
Summary of the method: as §1

Row | SMILES | pIC50 [1] | inhibition at up to 10 µM [1] | inhibition at up to 10 µM [2] | pIC50 [2]
1 | CS(=O)(=O)c1ccc(-c2ccc3cc(O)ccc3c2Oc2ccc(OCCOCCOCCN3CCN(c4ccc5c(c4)CN(C4CCC(=O)NC4=O)C5=O)CC3)cc2)cc1 (stereo not shown) [Compound D30] | 6.27 | 55% | 65% | –
2 | CS(=O)(=O)c1ccc(-c2ccc3cc(O)ccc3c2Oc2ccc(OCCOCCOCCN3CCN(c4ccc5c(c4)C(=O)N(C4CCC(=O)NC4=O)C5)CC3)cc2)cc1 (stereo not shown) [Compound D22, 3-(6-(4-(2-(2-(2-(4-((6-hydroxy-2-(4-(methylsulfonyl)phenyl)naphthalen-1-yl)oxy)phenoxy)ethoxy)ethoxy)ethyl)piperazin-1-yl)-1-oxoisoindolin-2-yl)piperidine-2,6-dione] | – | 38% | 61% | –
3 | C[C@@H]1CN(CCOCC(=O)N2CCN(c3ccc4c(c3)C(=O)N(C3CCC(=O)NC3=O)C4=O)CC2)[C@@H](C)CN1CCOc1ccc(Oc2c(-c3ccc(S(C)(=O)=O)cc3)ccc3cc(O)ccc23)cc1 (stereo partly drawn) [Compound D15, 2-(2,6-dioxopiperidin-3-yl)-5-(4-(2-(2-((2S,5R)-4-(2-(4-((6-hydroxy-2-(4-(methylsulfonyl)phenyl)naphthalen-1-yl)oxy)phenoxy)ethyl)-2,5-dimethylpiperazin-1-yl)ethoxy)acetyl)piperazin-1-yl)isoindoline-1,3-dione] | 6.31 | 51% | 48% | –
4 | CS(=O)(=O)c1ccc(-c2ccc3cc(O)ccc3c2Oc2ccc(OCCOCCOCCOCCN3CCN(c4ccc5c(c4)C(=O)N(C4CCC(=O)NC4=O)C5)CC3)cc2)cc1 (stereo not shown) [Compound D21] | – | 44% | 55% | –
5 | CCN(CCOCCOCCN1CCN(c2ccc3c(c2)C(=O)N(C2CCC(=O)NC2=O)C3=O)CC1)CCOc1ccc(Oc2c(-c3ccc(S(C)(=O)=O)cc3)ccc3cc(O)ccc23)cc1 (stereo not shown) [Compound D28, 2-(2,6-dioxopiperidin-3-yl)-5-(4-(2-(2-(2-(ethyl(2-(4-((6-hydroxy-2-(4-(methylsulfonyl)phenyl)naphthalen-1-yl)oxy)phenoxy)ethyl)amino)ethoxy)ethoxy)ethyl)piperazin-1-yl)isoindoline-1,3-dione] | 6.67 | 53% | 81% | 6.25
6 | C[C@@H]1CN(CCOc2ccc(Oc3c(-c4ccc(S(C)(=O)=O)cc4)ccc4cc(O)ccc34)cc2)[C@@H](C)CN1CCOCC(=O)N1CCN(c2ccc3c(c2)CN(C2CCC(=O)NC2=O)C3=O)CC1 (stereo partly drawn) [Compound D9, 3-(5-(4-(2-(2-((2R,5S)-4-(2-(4-((6-hydroxy-2-(4-(methylsulfonyl)phenyl)naphthalen-1-yl)oxy)phenoxy)ethyl)-2,5-dimethylpiperazin-1-yl)ethoxy)acetyl)piperazin-1-yl)-1-oxoisoindolin-2-yl)piperidine-2,6-dione] | 6.62 | 60% | 65% | 6.02
7 | CCN(CCCCCN(C)CC(=O)N1CCN(c2ccc3c(c2)C(=O)N(C2CCC(=O)NC2=O)C3=O)CC1)CCOc1ccc(Oc2c(-c3ccc(S(C)(=O)=O)cc3)ccc3cc(O)ccc23)cc1 (stereo not shown) [Compound D31, 2-(2,6-dioxopiperidin-3-yl)-5-(4-(N-(5-(ethyl(2-(4-((6-hydroxy-2-(4-(methylsulfonyl))phenyl)naphthalen-1-yl)oxy)phenoxy)ethyl)aminopentyl)-N-methylglycyl)piperazin-1-yl)isoindoline-1,3-dione] | – | 32% | 90% | –
8 | CS(=O)(=O)c1ccc(-c2ccc3cc(O)ccc3c2Oc2ccc(N3CCN(CCCCCOCC(=O)N4CCN(c5ccc6c(c5)CN(C5CCC(=O)NC5=O)C6=O)CC4)CC3)cc2)cc1 (stereo not shown) [Compound D11, 3-(5-(4-(2-((5-(4-(4-((6-hydroxy-2-(4-(methylsulfonyl)phenyl)naphthalen-1-yl)oxy)phenyl)piperazin-1-yl)pentyl)oxy)acetyl)piperazin-1-yl)-1-oxoisoindolin-2-yl)piperidine-2,6-dione] | – | 45% | 54% | 6.10
9 | CS(=O)(=O)c1ccc(-c2ccc3cc(O)ccc3c2Oc2ccc(OCCOCCOCCOCCOc3ccc4c(c3)C(=O)N(C3CCC(=O)NC3=O)C4)cc2)cc1 (stereo not shown) [Compound D35, 3-(6-(2-(2-(2-(2-(4-((6-hydroxy-2-(4-(methylsulfonyl)phenyl)naphthalen-1-yl)oxy)phenoxy)ethoxy)ethoxy)ethoxy)ethoxy)-1-oxoisoindolin-2-yl)piperidine-2,6-dione] | – | 45% | 39% | –
10 | CS(=O)(=O)c1ccc(-c2ccc3cc(O)ccc3c2Oc2ccc(OCCCCN3CCN(c4ccc5c(c4)CN(C4CCC(=O)NC4=O)C5=O)CC3)cc2)cc1 (stereo not shown) [Compound D59, 3-(5-(4-(4-(4-((6-hydroxy-2-(4-(methylsulfonyl)phenyl)naphthalen-1-yl)oxy)phenoxy)butyl)piperazin-1-yl)-1-oxoisoindolin-2-yl)piperidine-2,6-dione] | – | 37% | – | –
11 | CCN(CCOc1ccc(Oc2c(-c3ccc(S(C)(=O)=O)cc3)ccc3cc(O)ccc23)cc1)CC(=O)N1CCN(c2ccc3c(c2)C(=O)N(C2CCC(=O)NC2=O)C3=O)CC1 (stereo not shown) [Compound D8, 2-(2,6-dioxopiperidin-3-yl)-5-(4-(N-ethyl-N-(2-(4-((6-hydroxy-2-(4-(methylsulfonyl)phenyl)naphthalen-1-yl)oxy)phenoxy)ethyl)glycyl)piperazin-1-yl)isoindoline-1,3-dione] | – | 56% | 44% | –
12 | CS(=O)(=O)c1ccc(-c2ccc3cc(O)ccc3c2Oc2ccc(OCCOCCOCCOCCN3CCN(c4ccc5c(c4)C(=O)N(C4CCC(=O)NC4=O)C5=O)CC3)cc2)cc1 (stereo not shown) [Compound D19] | – | 44% | 73% | –
13 | CCN(CCOc1ccc(Oc2c(-c3ccc(S(C)(=O)=O)cc3)ccc3cc(O)ccc23)cc1)C(=O)c1ccc(CCC2CCN(C3CCN(c4ccc5c(c4)C(=O)N(C4CCC(=O)NC4=O)C5=O)CC3)CC2)cc1 (stereo not shown) [Compound D34, 4-(2-(1′-(2-(2,6-dioxopiperidin-3-yl)-1,3-dioxoisoindolin-5-yl)-[1,4′-bipiperidin]-4-yl)ethyl)-N-ethyl-N-(2-(4-((6-hydroxy-2-(4-(methylsulfonyl)phenyl)naphthalen-1-yl)oxy)phenoxy)ethyl)benzamide] | 7.16 | 52% | 82% | 6.74
